Data set [1] concerns SH-SY5Y. Kind of data set: Neuroprotective activity against potassium ion-induced cytotoxicity in human SH-SY5Y cells assessed as cell viability at 3 uM pretreated for 24 hrs measured 24 hrs post potassium ion challenge by MTT assay relative to control. Type of data set: functional. As to conditions: read-out: Activity. (Tetrazolium dyes change colour on reduction, which living cells bring about.)

Data set [2] relates to SH-SY5Y. Description: Neuroprotective activity against rotenone/oligomycin A-induced oxidative stress in human SH-SY5Y cells assessed as cell viability at 0.3 uM pretreated for 24 hrs measured 24 hrs post rotenone/oligomycin challenge by MTT assay relative to control. To be noted: read-out: Activity. Type of data set: functional.
For another data set, the system named is Hippocampus. Kind of data set: Neuroprotective activity against glutamate-induced neuronal cell death in Sprague-Dawley rat brain hippocampal slices assessed as cell viability at 10 uM incubated 4 hrs by MTT assay relative to control. In kind it is functional. To be noted: read-out: Activity.
Data set [3] in a line: Neuroprotective activity against veratradine-induced neuronal cell death in bovine chromaffin cells assessed as cell viability at 10 uM after 24 hrs by LDH release assay relative to control. In kind it is functional. To be noted: Bos taurus, read-out: Activity. (Release of lactate dehydrogenase indicates damage to the cell membrane.)
Data set [4] has as its target T1, Mitochondrial sodium/calcium exchanger protein (Homo sapiens) (UniProt Q6J4K2).
T1 sequence (whole entry): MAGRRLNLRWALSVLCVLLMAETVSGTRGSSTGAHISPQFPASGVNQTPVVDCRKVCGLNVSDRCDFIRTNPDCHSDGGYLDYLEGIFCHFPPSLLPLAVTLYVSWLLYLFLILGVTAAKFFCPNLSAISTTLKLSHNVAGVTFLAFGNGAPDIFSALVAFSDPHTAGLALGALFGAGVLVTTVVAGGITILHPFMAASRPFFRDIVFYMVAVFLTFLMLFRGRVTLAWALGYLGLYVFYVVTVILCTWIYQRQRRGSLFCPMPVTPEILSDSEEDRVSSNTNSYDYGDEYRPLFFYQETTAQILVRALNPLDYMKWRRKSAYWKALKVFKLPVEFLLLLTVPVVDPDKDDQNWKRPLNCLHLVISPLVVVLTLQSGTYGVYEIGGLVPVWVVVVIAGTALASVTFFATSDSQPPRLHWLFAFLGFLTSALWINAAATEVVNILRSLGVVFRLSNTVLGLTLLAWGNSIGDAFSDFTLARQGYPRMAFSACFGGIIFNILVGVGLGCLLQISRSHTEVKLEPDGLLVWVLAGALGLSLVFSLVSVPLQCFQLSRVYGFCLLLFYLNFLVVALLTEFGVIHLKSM
Kind of data set: Inhibition of mitochondrial sodium/calcium exchanger in human HeLa cells assessed as reduction in clearance of histamine-induced mitochondrial calcium at 3 uM after 36 to 48 hrs by aequorin staining based bioluminescence assay. Type of data set: cell-based.

Data set [5] deals with T1, Mitochondrial sodium/calcium exchanger protein (Homo sapiens). Description: Inhibition of mitochondrial sodium/calcium exchanger in human HeLa cells assessed as reduction in decay rate of histamine-induced mitochondrial calcium at 3 uM after 36 to 48 hrs by aequorin staining based bioluminescence assay. In kind it is cell-based.
Data set [6] shares this target. Kind of data set: Inhibition of mitochondrial sodium/calcium exchanger in human HeLa cells assessed as increase in AUC of histamine-induced mitochondrial calcium at 3 uM after 36 to 48 hrs by aequorin staining based bioluminescence assay. In kind it is cell-based.
Data set [7] is filed under the species Bos taurus. Description: Inhibition of sodium channel in bovine chromaffin cells assessed as blockade of inward sodium currents by perforated patch clamp method. Type of data set: cell-based. (The patch-clamp technique gives a direct electrical read-out from membranes.)
For data set [8], the system named is SH-SY5Y. Description: Cytotoxicity in human SH-SY5Y cells assessed as ROS generation after 24 hrs by H2DCFDA/Hoechst dye based fluorescence assay. Type of data set: cell-based.
Another data set concerns HeLa. Kind of data set: Cytotoxicity against human HeLa cells assessed as reduction in cell viability at 0.3 to 30 uM after 24 hrs by MTT assay. In kind it is cell-based.
The target of data set [9] is T1, Mitochondrial sodium/calcium exchanger protein (Homo sapiens). Description: Inhibition of mitochondrial sodium/calcium exchanger in human HeLa cells assessed as increase in maximal peak of histamine-induced mitochondrial calcium at 3 uM after 36 to 48 hrs by aequorin staining based bioluminescence assay. Type of data set: cell-based.
The species entered for data set [10] is Bos taurus. Description: Inhibition of voltage gated calcium channel in bovine chromaffin cells assessed as blockade of depolarizing pulse-induced whole cell inward calcium currents by perforated patch clamp method. In kind it is cell-based.
Data set [11] addresses T2, Mitochondrial sodium/calcium exchanger protein (Homo sapiens, UniProt Q6J4K2).
T2 sequence (Q6J4K2 whole entry): T1 sequence (whole entry)
Description: Inhibition of mitochondrial sodium/calcium exchanger (unknown origin).

Active and inactive are the calls of the source. The rule behind the calls is not given here.

`O=C1CSC(c2ccccc2Cl)c2cc(Cl)cnc2N1` (stereo not given): the viability at 3 µM with SH-SY5Y [1] worked out at 33%. Besides, the viability at 0.3 µM in the data set on SH-SY5Y [2] came out at 11%. Further, the viability at 10 µM with Hippocampus was found to be 27%; in data set [3], 22%.

`COC(=O)C1=C(C)NC(C)=C(C(=O)OC)C1c1ccccc1[N+](=O)[O-]` [NIFEDIPINE]: the viability at 3 µM with SH-SY5Y [1] stood at 24%.

In the case of `O=C1CSC(c2ccccc2Br)c2cc(Cl)cnc2N1` (stereo not given), the inhibition (usually the drop in the measured response relative to a control, in per cent) in data set [4] is “inactive”. Also, the viability at 3 µM in the data set with SH-SY5Y [1] stood at 30%. In the data set on SH-SY5Y [2], the viability at 0.3 µM came to 21%. The viability at 10 µM in the data set with Hippocampus worked out at 28%; in data set [3] it was 23%. Further, the inhibition result in data set [5] was “Active”.

With `CC(C)c1ccccc1C1SCC(=O)Nc2ncc(Cl)cc21` (stereo not given), in the data set with SH-SY5Y [1], the viability at 3 µM stood at 28%. Besides, the viability at 0.3 µM in the data set on SH-SY5Y [2] was determined as 19%. For the same compound, the values for the viability at 10 µM (in the data set with Hippocampus; in data set [3]) were 33% and 49%, respectively.

In the case of `COc1ccc2[nH]cc(CCNC(C)=O)c2c1` [MELATONIN], the viability at 0.3 µM in the data set with SH-SY5Y [2] turned out to be 27%.

Take `Cc1ccccc1C1SCC(=O)Nc2ncc(Cl)cc21` (stereo not given): in the data set with SH-SY5Y [1], the viability at 3 µM was determined as 20%. Besides, the viability at 0.3 µM in the data set with SH-SY5Y [2] turned out to be 21%. Also, the values for the viability at 10 µM (in the data set on Hippocampus; in data set [3]) were 27% and 14%, respectively.

On to `O=C1CSC(c2ccccc2C(F)(F)F)c2cc(Cl)cnc2N1` (stereo not given), for which the viability at 3 µM in the data set on SH-SY5Y [1] is 19%. Further, the viability at 0.3 µM with SH-SY5Y [2] worked out at 18%. In addition, the figures for the viability at 10 µM (with Hippocampus; in [3]) were 42% and 17%, respectively.

Turning to `CCOc1ccccc1C1SCC(=O)Nc2ncc(Cl)cc21` (stereo not given), the viability at 3 µM in the data set on SH-SY5Y [1] was found to be 28%. Besides, the viability at 0.3 µM in the data set with SH-SY5Y [2] was 26%. In addition, the values for the viability at 10 µM (with Hippocampus; in [3]) were 11% and 17%, respectively.

Turning to `O=C1CSC(c2ccc(F)cc2)c2cc(Cl)cnc2N1` (stereo not given), the inhibition result in data set [6], in data set [5] and in data set [9] was “Active” throughout. Besides, the inhibition result in the data set listed under Bos taurus [7] and in the data set listed under Bos taurus [10] was “inactive” throughout. The viability at 3 µM with SH-SY5Y [1] was 27%. Also, the Activity result in the data set with SH-SY5Y [8] and with HeLa was “Non-toxic” throughout. Moreover, the viability at 0.3 µM in the data set with SH-SY5Y [2] was 24%. The results for the viability at 10 µM (in the data set on Hippocampus; in data set [3]) were 20% and 22%, respectively.

On to `O=C1CSC(c2ccccc2Cl)c2cc(Cl)ccc2N1` (stereo not given), for which the viability at 3 µM in the data set on SH-SY5Y [1] is 36%. Besides, in the data set with SH-SY5Y [2], the viability at 0.3 µM came out at 18%. For the same compound, the viability at 10 µM in the data set on Hippocampus is 37%; in [3], 76%. Moreover, in data set [5], the inhibition result was “Active”. In [11], the IC50 (as a rule, the concentration at which inhibition is half-maximal) was 1.6 µM. Besides, the inhibition in the data set listed under Bos taurus [10] (dose or concentration not given here) was determined as 37%.

Consider `O=C1CSC(c2ccccc2)c2cc(Cl)cnc2N1` (stereo not given), for which the viability at 3 µM in the data set on SH-SY5Y [1] was found to be 21%. Further, the viability at 0.3 µM in the data set with SH-SY5Y [2] amounted to 30%. The viability at 10 µM in the data set with Hippocampus came to 33%; in [3], 6%. Besides, the inhibition result in [5] was “Active”.

With `COc1ccccc1C1SCC(=O)Nc2ncc(Cl)cc21` (stereo not given), the viability at 3 µM with SH-SY5Y [1] was 17%. For the same compound, the viability at 0.3 µM in the data set with SH-SY5Y [2] came to 19%. The viability at 10 µM in the data set with Hippocampus came out at 13%; in [3] it was 27%.

Turning to `CC12CC3CC(C)(C1)CC(N)(C3)C2` [MEMANTINE], the viability at 10 µM with Hippocampus came out at 43%.

Turning to `COc1ccc(C2SCC(=O)Nc3ncc(Cl)cc32)cc1` (stereo not given), the viability at 3 µM in the data set on SH-SY5Y [1] was determined as 10%. For the same compound, in the data set with SH-SY5Y [2], the viability at 0.3 µM stood at 23%. Also, the viability at 10 µM in the data set on Hippocampus was found to be 34%; in [3] it was 27%.

(Values after ChEMBL document CHEMBL3763035, “Neuroprotective profile of pyridothiazepines with blocking activity of the mitochondrial Na(+)/Ca(2+) exchanger” (Eur J Med Chem, 2016).)
